Assay results published in publication PMC9031804, “The Peptide-Drug Conjugate TH1902: A New Sortilin Receptor-Mediated Cancer Therapeutic against Ovarian and Endometrial Cancers” (Cancers, 2022).

Tests used:
[1] = test system: A2780 ovarian cancer xenografts; test: A2780 ovarian cancer xenograft tumor growth; assay type: in vivo, human tumor in female athymic nude mice; conditions: for Tumor progression, Size Increase (x-Fold Day-0): vehicle group endpoint, n = 5 mice/group
Source text: (§1) Animals were obtained from Charles River Laboratories, Inc. and allowed to acclimate for 5 days before experiments. Female CD-1 nude mice (Crl:CD1-Foxn1^nu, 4–6 weeks old; ES-2) or athymic nude mice (Crl:NU(NCr)-Foxn1^nu, 4–6 weeks old; SKOV3, A2780, AN3-CA) were used for the xenograft tumor models. Mice were maintained in a pathogen-free environment and handled in accordance with the Guidelines of the Canadian Council on Animal Care. Animal protocols were approved by the Institutional Animal Care and Use Committee of Université du Québec à Montréal (0620-C1R1-897-0621).
(§2) Tumor xenografts were established by subcutaneous inoculation of 5 × 10^6 cells (ES-2) or 7 × 10^6 cells (SKOV3) in 150 µL of HBSS; other xenografts were established by subcutaneous inoculation of 5 × 10^6 cells (A2780) or 2 × 10^6 cells (AN3-CA) in 150 µL of HBSS/Matrigel (50:50). All cells were injected into the right flanks of immunodeficient mice under light isoflurane anesthesia. The injection schedules and doses of injected substances are detailed in the figures. Briefly, when palpable ES-2, SKOV3 or AN3-CA tumors reached a volume of ~100 mm^3, mice were treated weekly with either vehicle, docetaxel (3.75 or 15 mg/kg) or TH1902 (8.75 or 35 mg/kg) at equivalent docetaxel amounts via intravenous (IV) tail vein injection. Note that three cycles of 15 mg/kg docetaxel is the maximum tolerated dose in mice and that 35 mg/kg TH1902 contains the same quantity of docetaxel (bis-linked to the peptide). In A2780 xenografts, when palpable tumors reached a volume of ~250 mm^3, mice were treated with either vehicle, paclitaxel (10 mg/kg, IV), carboplatin (40 mg/kg, intraperitoneal (IP)), docetaxel (10 mg/kg, IV) or TH1902 (23 mg/kg, IV) bi-weekly as single agents or once on Day-0 as combinations with carboplatin. For combination treatments, both taxanes and TH1902 were injected 1 h following carboplatin administrations at the doses previously described. Injectable solutions were prepared as follows: TH1902 was solubilized at 10 mg/mL in 10% Tween-80 in D5W (pH 4.3, w/v) then further diluted with D5W; docetaxel was solubilized at 25 mg/mL in ethanol and Tween-80 (50/50, v/v) then further diluted with D5W; paclitaxel was solubilized at 25 mg/mL in ethanol and Cremophor EL (50/50, v/v) then further diluted in saline; carboplatin was solubilized at 50 mg/mL in water then further diluted in a solution of 30% PEG400 and 5% Tween-80 in D5W (w/v); vehicle composition and preparation mimicked highest dose of TH1902 preparation. Tumor growth was monitored by two-dimensional measurements taken with an electronic caliper and tumor volume was calculated according to the following formula: tumor volume (mm^3) = π/6 × length × width^2. Data are expressed as mean ± SEM and were analyzed using GraphPad Prism software.
Figure 8 Effects of TH1902 and carboplatin combinations on A2780 ovarian cancer xenografts. A2780 cells were subcutaneously implanted in the flanks of athymic nude mice. Tumor volume measurements following bi-weekly administrations of (A) vehicle, docetaxel, TH1902, paclitaxel or carboplatin as single agents, or (B) administered once in combination using the same dosage as described in the methods section. Colored dots below indicate drug treatments for all groups. Data are represented as mean ± SEM (n = 5 mice/group).

ES-2 cells = test: Cell proliferation, MTT assay, ES-2; assay type: cell-based; conditions: Homo sapiens, 72 h, mean ± SD, n = 3 to 5, read-out: IC50, anti-proliferative activity
Description: (§3) To assess the effects of docetaxel and TH1902 on ovarian and endometrial cancer cell proliferation, cells (ES-2: 3000 cells/well, SKOV3: 1000 cells/well, A2780: 7000 cells/well, AN3-CA: 7000 cells/well) were first seeded in 96-well plates (Perkin Elmer, Guelph, ON, Canada), then treated with various concentrations of drugs in complete cell culture medium. After 72 h of incubation for ES-2, A2780 and AN3-CA cells, or 96 h for SKOV3 cells, cell proliferation was measured using the 3-(4,5-dimethylthiazol-2-yl)-2,5-diphenyltetrazolium bromide (MTT) as described previously. Analyses were made in quadruplicate for each condition.

SKOV3 cells = test: Cell proliferation, MTT assay, SKOV3; assay type: cell-based; conditions: Homo sapiens, SK-OV-3, 96 h, mean ± SD, n = 3 to 5, read-out: IC50, anti-proliferative activity
Description: as §3

A2780 cells = test: Cell proliferation, MTT assay, A2780; assay type: cell-based; conditions: Homo sapiens, 72 h, mean ± SD, n = 3 to 5, read-out: IC50, anti-proliferative activity
Description: as §3

[2] = test system: ES-2 ovarian cancer xenografts; test: ES-2 ovarian cancer xenograft tumor growth; assay type: in vivo, human tumor in female CD-1 nude mice; conditions: for Tumor progression, Size Increase (x-Fold Day-0): vehicle group endpoint Day 18, n = 6 mice/group
Source text: as §1
Tumor xenografts were established by subcutaneous inoculation of 5 × 10^6 cells (ES-2) or 7 × 10^6 cells (SKOV3) in 150 µL of HBSS; other xenografts were established by subcutaneous inoculation of 5 × 10^6 cells (A2780) or 2 × 10^6 cells (AN3-CA) in 150 µL of HBSS/Matrigel (50:50). All cells were injected into the right flanks of immunodeficient mice under light isoflurane anesthesia. The injection schedules and doses of injected substances are detailed in the figures. […] Note that three cycles of 15 mg/kg docetaxel is the maximum tolerated dose in mice and that 35 mg/kg TH1902 contains the same quantity of docetaxel (bis-linked to the peptide). […] Tumor growth was monitored by two-dimensional measurements taken with an electronic caliper and tumor volume was calculated according to the following formula: tumor volume (mm^3) = π/6 × length × width^2. Data are expressed as mean ± SEM and were analyzed using GraphPad Prism software.
Figure 6 Effects of docetaxel and TH1902 on ES-2 and SKOV3 ovarian cancer xenografts. […] Immunodeficient mice bearing subcutaneous ES-2 (A) or SKOV3 (B) tumors were intravenously injected weekly with either vehicle, docetaxel (at its MTD and quarter MTD doses; 15 and 3.75 mg/kg, respectively), or TH1902 (at a dosage which contains a quantity of bound docetaxel equal to the docetaxel doses; 35 and 8.75 mg/kg, respectively), as described in the methods section. […]

[3] = test system: SKOV3 ovarian cancer xenografts; test: SKOV3 ovarian cancer xenograft tumor growth; assay type: in vivo, human tumor in female athymic nude mice; conditions: for Tumor progression, Size Increase (x-Fold Day-0): vehicle endpoint Day 28, n = 6 mice/group
Source text: as §1
as §2, with “For combination treatments, both taxanes and TH1902 were injected 1 h following carboplatin administrations at the doses previously described. Injectable solutions were prepared as follows: TH1902 was solubilized at 10 mg/mL in 10% Tween-80 in D5W (pH 4.3, w/v) then further diluted with D5W; docetaxel was solubilized at 25 mg/mL in ethanol and Tween-80 (50/50, v/v) then further diluted with D5W; paclitaxel was solubilized at 25 mg/mL in ethanol and Cremophor EL (50/50, v/v) then further diluted in saline; carboplatin was solubilized at 50 mg/mL in water then further diluted in a solution of 30% PEG400 and 5% Tween-80 in D5W (w/v); vehicle composition and preparation mimicked highest dose of TH1902 preparation.” left out
Figure 6 Effects of docetaxel and TH1902 on ES-2 and SKOV3 ovarian cancer xenografts. […] Immunodeficient mice bearing subcutaneous ES-2 (A) or SKOV3 (B) tumors were intravenously injected weekly with either vehicle, docetaxel (at its MTD and quarter MTD doses; 15 and 3.75 mg/kg, respectively), or TH1902 (at a dosage which contains a quantity of bound docetaxel equal to the docetaxel doses; 35 and 8.75 mg/kg, respectively), as described in the methods section. Mice in the ES-2 study were euthanized at vehicle group endpoint (Day 18), whereas indicated groups in SKOV3 study were monitored for a prolonged period up to Day 46 post start of treatments.

[4] = test system: AN3-CA endometrial cancer xenografts; test: AN3-CA endometrial cancer xenograft tumor growth; assay type: in vivo, human tumor in female athymic nude mice; conditions: for Tumor progression, Size Increase (x-Fold Day-0): vehicle group endpoint Day 14, n = 6 mice/group
Source text: as §1, §2

[5] = Mice weights, ES-2 xenograft study; assay type: in vivo; conditions: ES-2 study
[6] = Mice weights, SKOV3 xenograft study; assay type: in vivo; conditions: docetaxel 15 mg/kg, three weekly cycles
Description: (§4) Tumor xenografts were established by subcutaneous inoculation of 5 × 10^6 cells (ES-2) or 7 × 10^6 cells (SKOV3) in 150 µL of HBSS; other xenografts were established by subcutaneous inoculation of 5 × 10^6 cells (A2780) or 2 × 10^6 cells (AN3-CA) in 150 µL of HBSS/Matrigel (50:50). All cells were injected into the right flanks of immunodeficient mice under light isoflurane anesthesia. The injection schedules and doses of injected substances are detailed in the figures. Briefly, when palpable ES-2, SKOV3 or AN3-CA tumors reached a volume of ~100 mm^3, mice were treated weekly with either vehicle, docetaxel (3.75 or 15 mg/kg) or TH1902 (8.75 or 35 mg/kg) at equivalent docetaxel amounts via intravenous (IV) tail vein injection. Note that three cycles of 15 mg/kg docetaxel is the maximum tolerated dose in mice and that 35 mg/kg TH1902 contains the same quantity of docetaxel (bis-linked to the peptide). […] Tumor growth was monitored by two-dimensional measurements taken with an electronic caliper and tumor volume was calculated according to the following formula: tumor volume (mm^3) = π/6 × length × width^2. Data are expressed as mean ± SEM and were analyzed using GraphPad Prism software. […]

[7] = Mice weights, AN3-CA xenograft study; assay type: in vivo; conditions: docetaxel high dose 15 mg/kg, reversed when dosage was halved
Description: as §4

[8] = Mice weights, A2780 xenograft study; assay type: in vivo; conditions: docetaxel 10 mg/kg IV, three cycles
Description: as §4

[9] = ref [38]; cited from earlier work
Source text: Taxanes, mainly paclitaxel and docetaxel, are well-known microtubule stabilizers used in various cancer including ovarian and endometrial cancer first-line therapies in the last thirty years. […] Here, the new chemical entity TH1902 is distinct from the docetaxel molecule as it selectively exploits SORT1’s internalization properties to trigger cell apoptosis in ES-2 and ...

[10] = mice; three (weekly) cycles; ref [31]; cited from earlier work
[11] = single agent 40 mg/kg IP bi-weekly
[12] = single agent 10 mg/kg IV bi-weekly

N.N.O=C([O-])C1(C(=O)[O-])CCC1.[Pt+2] [Carboplatin, carboplatin]
Tumor growth inhibition [1, 11]: 38% | Tumor progression, Size Increase (x-Fold Day-0) [1, 11]: 4.21 x-Fold Day-0

CC(=O)O[C@@]12CO[C@@H]1C[C@H](O)[C@@]1(C)C(=O)[C@H](O)C3=C(C)[C@@H](OC(=O)[C@H](O)[C@@H](NC(=O)OC(C)(C)C)c4ccccc4)C[C@@](O)([C@@H](OC(=O)c4ccccc4)[C@H]21)C3(C)C [Docetaxel, docetaxel]
IC50 (ES-2 cells): 2.24 ± 0.99 nM | IC50 (SKOV3 cells): 0.61 ± 0.1 nM | IC50 (A2780 cells): 1.76 ± 0.38 nM | Tumor progression, Size Increase (x-Fold Day-0) ([2]; docetaxel 3.75 mg/kg IV weekly): 10.08 x-Fold Day-0 | Tumor progression, Size Increase (x-Fold Day-0) ([2]; docetaxel 15 mg/kg IV weekly): 8.31 x-Fold Day-0 | Effect on tumor growth ([2]; docetaxel, both 3.75 and 15 mg/kg IV weekly): produced little effect | Tumor progression, Size Increase (x-Fold Day-0) ([3]; docetaxel 3.75 mg/kg IV weekly): 9.70 x-Fold Day-0 | Tumor progression, Size Increase (x-Fold Day-0) ([3]; docetaxel 15 mg/kg IV weekly): 2.25 x-Fold Day-0 | Tumor regrowth on prolonged monitoring ([3]; docetaxel high dose 15 mg/kg, prolonged monitoring): could not sustain this effect, which is marked by tumor regrowth | Tumor growth inhibition ([3]; docetaxel high dose 15 mg/kg, vs vehicle endpoint Day 28): 84% | Tumor progression, Size Increase (x-Fold Day-0) ([4]; docetaxel 3.75 mg/kg IV weekly): 12.07 x-Fold Day-0 | Tumor progression, Size Increase (x-Fold Day-0) ([4]; docetaxel 15 mg/kg IV weekly): 0.79 x-Fold Day-0 | Tumor response on prolonged monitoring ([4]; docetaxel high dose 15 mg/kg (halved for final two treatments), before end of treatments): unresponsive and regrew before the end of treatments | Tumor regression ([4]; docetaxel high dose 15 mg/kg, vs vehicle endpoint): induced tumor regressions | Tumor growth inhibition [1, 12]: 43% | Tumor progression, Size Increase (x-Fold Day-0) [1, 12]: 4.13 x-Fold Day-0 | Tolerability / body weight ([5]; docetaxel high dose 15 mg/kg, three weekly cycles, vs initial weight): small weight loss | Tolerability / body weight ([5]; docetaxel low dose 3.75 mg/kg weekly): well-tolerated with slight weight gain | Body weight loss [6]: > 10% | Body weight loss, in words [6]: severe weight loss | Body weight loss, in words [7]: Rapid weight loss | Body weight loss, in words [8]: significant body weight loss | Water solubility [9]: very poor water solubility | Maximum tolerated dose [10]: 15 mg/kg
